Reference: the supplement of paper PMC3493320
pIC50: −log10 of the molar value.

What follows are molecules tested on NCI-H295R (assay: IC50 (antiproliferative, ATP content)). Conditions: 48 h.
Outline: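 Cell viability of adrenocortical carcinoma cells was assessed as ATP by CellTiter-Glo luminescence. Cells at 1500 per well in 1536-well plates, in serum-free DMEM with ITS, received compounds by pin transfer at 8 final concentrations (0.6 nM–46 µM) after overnight culture and were then held 48 h at 37 °C, 5% CO2. IC50 was calculated by logistic fitting against vehicle and positive-control wells, compounds with no concentration response being recorded as above the top dose.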
`CN(C)CCc1c[nH]c2ccc(C[C@H]3COC(=O)N3)cc12` was tested, and the pIC50 was < 4.34. In the case of `O=C(O)[C@H](O)c1ccccc1`, the pIC50 was < 4.34. With `CC1(c2ccccc2)OC(C(=O)O)=CC1=O` (configuration not stated) the pIC50 was < 4.34. For `NC[C@H](O)c1ccc(O)c(O)c1.O=C(O)C(O)C(O)C(=O)O.O=C(O)C(O)C(O)C(=O)O`, the pIC50 was < 4.34. With `CC(C)NCC(O)c1ccc2ccccc2c1` (configuration not stated) the pIC50 was < 4.34. `Cc1cc(C)cc(OCC2CNC(=O)O2)c1` (configuration not stated) was tested, and the pIC50 was < 4.34. `CC(Cc1ccccc1)NCc1ccccc1Cl.Cl` (configuration not stated) was tested, and the pIC50 was < 4.34. In the case of `CC[C@H](C)[C@H](NC(=O)[C@H](Cc1ccccc1)NC(=O)[C@H](C)NC(=O)[C@H](CC(=O)O)NC(=O)[C@H](CCCCN)NC(=O)[C@H](CO)NC(=O)[C@@H]1CCCN1C(=O)[C@@H]1CCC(=O)N1)C(=O)NCC(=O)N[C@@H](CC(C)C)C(=O)N[C@@H](CCSC)C(N)=O`, the pIC50 was < 4.34. `C=CCOc1ccc(CC(=O)O)cc1Cl` was tested, and the pIC50 was < 4.34. With `CN1c2c(O)nc(N)nc2NCC1CNc1ccc(C(=O)NC(CCC(=O)[O-])C(=O)[O-])cc1.[Na+].[Na+]` (configuration not stated) the pIC50 was < 4.34. For `COc1ccc(CCN(C)CCCN2CCc3cc(OC)c(OC)cc3CC2=O)cc1OC.Cl`, the pIC50 was < 4.34. For `C[C@]12CCC(=O)C[C@@H]1CC[C@@H]1[C@@H]2CC[C@]2(C)[C@@H](O)CC[C@@H]12`, the pIC50 was < 4.34. `CCOc1ccc2ccccc2c1C(=O)N[C@@H]1C(=O)N2[C@@H]1SC(C)(C)[C@@H]2C(=O)[O-].O.[Na+]` was tested, and the pIC50 was < 4.34. For `Cl.Cl.c1ccc(CNCCNCc2ccccc2)cc1`, the pIC50 was < 4.34. With `COC(=O)[C@H]1[C@H]2C[C@H]3c4[nH]c5ccccc5c4CCN3C[C@H]2CC[C@@H]1O` the pIC50 was < 4.34. `COc1ccccc1N1CCN(CC(O)COc2cccc3ccccc23)CC1` (configuration not stated) was tested, and the pIC50 was < 4.34. In the case of `N[C@@]([C@H]([C@H]1O)O[C@H]([C@@H]([C@H]1O)O)O)=O`, the pIC50 was < 4.34. In the case of `CC(C)[C@H](N)C(=O)OCCOCn1cnc2c(=O)[nH]c(N)nc21.Cl`, the pIC50 was < 4.34. For `O=C(O)c1ccccc1C(=O)Nc1ccc(S(=O)(=O)Nc2nccs2)cc1`, the pIC50 was < 4.34. `CCCCNCC(O)c1ccc(O)cc1` (configuration not stated) was tested, and the pIC50 was < 4.34. `CN[C@@H]1[C@@H](O)[C@@H](O[C@@H]2[C@H](O)[C@H](O[C@H]3OC(CN)=CC[C@H]3N)[C@@H](N)C[C@H]2N)OC[C@]1(C)O` was tested, and the pIC50 was < 4.34. With `C[C@]12CC[C@H]3[C@@H](CCC4=C(O)C(=O)CC[C@@H]43)[C@@H]1CC[C@@H]2OC(=O)CCC1CCCC1` the pIC50 was < 4.34. With `c1ccc(-c2nc[nH]c2-c2ccccc2)cc1` the pIC50 was < 4.34. In the case of `Nc1ccc(S(=O)(=O)Nc2nccs2)cc1`, the pIC50 was < 4.34. In the case of `CC(=O)OCC(=O)[C@@]12OC3(CCCC3)O[C@@H]1C[C@H]1C3CCC4=CC(=O)C=C[C@]4(C)[C@@]3(F)[C@@H](O)C[C@@]12C` (some centres not stated), the pIC50 was < 4.34. With `CCCCCCCCOC(=O)c1ccccc1C(=O)OCCCCCCCC` the pIC50 was < 4.34. In the case of `O=C(O)COc1ccc(CCNS(=O)(=O)c2ccccc2)s1`, the pIC50 was < 4.34. With `ClCC1CO1` (configuration not stated) the pIC50 was < 4.34. With `COc1cc2c(cc1OC)[C@@H](c1ccccc1)CN(C)CC2.O=C(O)/C=C\C(=O)O` the pIC50 was < 4.34. `COc1cc2[nH]c(=O)[nH]c(=O)c2cc1OC` was tested, and the pIC50 was < 4.34. For `Cn1c(=O)c2c(ncn2CC2OCCO2)n(C)c1=O`, the pIC50 was < 4.34. With `Cc1cc(C)c(NC(=O)C[C@H](CC(=O)[O][Na])c2cccc3ccccc23)c(C(=O)N2CCC3(CCCC3)CC2)c1` the pIC50 was < 4.34. In the case of `OC[C@H]1O[C@@H](O[C@H]2[C@H](O)[C@@H](O)[C@H](O)O[C@@H]2CO)[C@H](O)[C@@H](O)[C@@H]1O`, the pIC50 was < 4.34. `CC(C)c1ncc([N+](=O)[O-])n1C` was tested, and the pIC50 was < 4.34. For `C[C@]12CC[C@H](OS(=O)(=O)[O][Na])CC1=CC[C@@H]1[C@@H]2CC[C@]2(C)C(=O)CC[C@@H]12.O.O`, the pIC50 was < 4.34. `C[C@H](CCC(=O)[O-])[C@H]1CC[C@H]2[C@@H]3CC[C@@H]4C[C@H](O)CC[C@]4(C)[C@H]3C[C@H](O)[C@]12C.[Na+]` was tested, and the pIC50 was < 4.34. With `O=C1N=C2SCCN2C(=O)C1Cc1ccc(Cl)cc1` (configuration not stated) the pIC50 was < 4.34. With `COc1cc2c(cc1OC)CC(=O)N(CCCN(C)C[C@H]1Cc3cc(OC)c(OC)cc31)CC2.Cl` the pIC50 was < 4.34. With `O=C1c2ccccc2C(=O)C1c1ccc(Cl)cc1` the pIC50 was < 4.34. With `Nc1cc(N2CCCCC2)nc(N)[n+]1[O-]` the pIC50 was < 4.34. `CC(=O)[C@H]2CC[C@H]3[C@@H]4\C=C/C1=C/C(=O)CC[C@@]1(C)[C@@H]4CC[C@]23C` was tested, and the pIC50 was < 4.34. With `COc1ccc2c(c1)C(=O)N(CCc1ccc(S(=O)(=O)NC(=O)NC3CCCCC3)cc1)C(=O)C2(C)C` the pIC50 was < 4.34. In the case of `O.O=P1(N(CCCl)CCCl)NCCCO1` (configuration not stated), the pIC50 was < 4.34. In the case of `NCCc1ccc(O)c(O)c1`, the pIC50 was < 4.34. In the case of `Nc1nc(=O)c2nc(CNc3ccc(C(=O)N[C@@H](CCC(=O)O)C(=O)O)cc3)cnc2[nH]1`, the pIC50 was < 4.34. For `CCN(CC)CCNC(=O)c1ccc(N)cc1`, the pIC50 was < 4.34. In the case of `CC(=O)c1ccc2c(c1)N(CCCN1CCC(CCO)CC1)c1ccccc1S2`, the pIC50 was < 4.34. `Nc1nc(=O)[nH]cc1F` was tested, and the pIC50 was < 4.34. With `CCN(CC)CCOc1ccc2nc(N(C)C)sc2c1` the pIC50 was < 4.34. For `Cl.NCCNC(=O)c1ccc(Cl)cn1`, the pIC50 was < 4.34. `COc1cc(C(=O)N2CCCCCCC2)cc(OC)c1OC` was tested, and the pIC50 was < 4.34. In the case of `C=CC[N@@+]1(C)CC[C@]23c4c5ccc(O)c4O[C@H]2C(=O)CC[C@@]3(O)[C@H]1C5.[I-]`, the pIC50 was < 4.34. With `FC1(F)C(F)(F)C(F)(F)C2(F)C(F)(F)C(F)(F)C(F)(F)C(F)(F)C2(F)C1(F)F` (configuration not stated) the pIC50 was < 4.34. In the case of `CCOC(=O)C1=C(C)NC(C)=C(C(=O)OC)C1c1cccc([N+](=O)[O-])c1` (configuration not stated), the pIC50 was < 4.34. For `CC(=O)OCC1=C(C(=O)O)N2C(=O)[C@@H](N)[C@H]2SC1`, the pIC50 was < 4.34. With `C=CCCCCCCCCC(=O)OC` the pIC50 was < 4.34. For `NS(=O)(=O)c1ccc(C(=O)O)cc1`, the pIC50 was < 4.34. With `OS(C1=C(C(C)C)C=C3C([C@@]2(C)CCC[C@]([C@@](O)=O)(C)[C@@]([H])2CC3)=C1)(=O)=O` the pIC50 was < 4.34. With `Cl.NCCO/C=C/[C@H](N)C(=O)O` the pIC50 was < 4.34. For `O=C([O-])c1nc(O)nc(O)n1.[K+]`, the pIC50 was < 4.34. `CN(C(=O)CCCOc1ccc2[nH]c(=O)ccc2c1)C1CCCCC1` was tested, and the pIC50 was < 4.34. `CCCCc1nc(Cl)c(CO)n1Cc1ccc(-c2ccccc2-c2nnn[nH]2)cc1` was tested, and the pIC50 was < 4.34. With `Cl[C@H](CC4)[C@H](OC)C[C@@H]4/C=[C@](C)/[C@@H](OC([C@]2([H])CCCCN12)=O)[C@H](C)[C@@H](O)CC([C@H](CC)/C=C(C)/C[C@H](C)C[C@H](OC)[C@@]([C@@H](OC)C[C@H]3C)([H])O[C@@]3(O)C(C1=O)=O)=O` the pIC50 was < 4.34. With `C[C@]12C=CC(=O)C=C1CC[C@H]1[C@@H]3C[C@@H](O)[C@](O)(C(=O)CO)[C@@]3(C)C[C@H](O)[C@@]12F` the pIC50 was < 4.34. `O=[C@](COC(C)=O)[C@](CC4)(O)[C@]2(C)[C@]4([H])[C@]1([H])CCC([C@@](C=C3)(C)[C@]([H])1[C@@H](O)C2)=CC3=O` was tested, and the pIC50 was < 4.34. With `NCC(CC(=O)O)c1ccc(Cl)cc1` (configuration not stated) the pIC50 was < 4.34. With `COC(F)(F)C(Cl)Cl` the pIC50 was < 4.34. With `O=C(O)c1ccc(NC2OC[C@@H](O)[C@H](O)[C@H]2O)cc1` (some centres not stated) the pIC50 was < 4.34. In the case of `CC(C)(C)NC[C@H](O)COc1nsnc1N1CCOCC1`, the pIC50 was < 4.34. With `CO[C@H]1C[C@@H]2CC[C@@H](C)[C@@](O)(O2)C(=O)C(=O)N2CCCC[C@H]2C(=O)O[C@H]([C@H](C)C[C@@H]2CC[C@@H](OC(=O)C(C)(CO)CO)[C@H](OC)C2)CC(=O)[C@H](C)/C=C(\C)[C@@H](O)[C@@H](OC)C(=O)[C@H](C)C[C@H](C)/C=C/C=C/C=C/1C` the pIC50 was < 4.34. In the case of `O=C(O)CCCCC1CCSS1` (configuration not stated), the pIC50 was < 4.34. For `COc1cccc([C@@]2(O)CCCC[C@@H]2CN(C)C)c1`, the pIC50 was < 4.34. With `C=CCN1CCCC1CNC(=O)c1cc(S(N)(=O)=O)cc(OC)c1OC` (configuration not stated) the pIC50 was < 4.34. With `CCCCCCCCCCCCCC(=O)OCC(COP(=O)([O-])OCC[N+](C)(C)C)OC(=O)CCCCCCCCCCCCC` (configuration not stated) the pIC50 was < 4.34. In the case of `CC[C@H]1OC(=O)[C@H](C)[C@@H](O[C@H]2C[C@@](C)(OC)[C@@H](O)[C@H](C)O2)C(C)[C@@H](O[C@@H]2O[C@H](C)C[C@H](N(C)C)[C@H]2O)[C@](C)(OC)C[C@@H](C)C(=O)[C@H](C)[C@@H](O)[C@]1(C)O` (some centres not stated), the pIC50 was < 4.34. `CC(C)(C)NCC(O)COc1ccc(NC(=O)NC2CCCCC2)cc1` (configuration not stated) was tested, and the pIC50 was < 4.34. `C#CC(C)(O)CC` (configuration not stated) was tested, and the pIC50 was < 4.34. In the case of `CC(C)CCOC(=O)c1ccc(N(C)C)cc1`, the pIC50 was < 4.34. For `CCCCCCCCCCCCCCCCCC(=O)OCC(O)CO` (configuration not stated), the pIC50 was < 4.34. For `O=[C@](OC)[C@H]3[C@@]2([H])C[C@](N4C[C@]([H])2C[C@H](OC)[C@@H]3OC)([H])C1=C(CC4)C(C=C5)=C(C=C5OC)N1.Cl`, the pIC50 was < 4.34. `O=c1ccc2cc(O[C@@H]3O[C@H](CO)[C@@H](O)[C@H](O)[C@H]3O)c(O)cc2o1` was tested, and the pIC50 was < 4.34. For `O=C([O-])c1cc(O)c2c3nc4ccccc4oc-3cc(=O)c2n1.[Na+]`, the pIC50 was < 4.34. `O=CCCCC=O` was tested, and the pIC50 was < 4.34. With `Cc1nnc(NS(=O)(=O)c2ccc(N)cc2)s1` the pIC50 was < 4.34. With `O=[N+]([O-])C(Br)(CO)CO` the pIC50 was < 4.34. With `C=CCOC(Cn1ccnc1)c1ccc(Cl)cc1Cl.O=S(=O)(O)O` (configuration not stated) the pIC50 was < 4.34. For `CC12CC3CC(C)(C1)CC(N)(C3)C2`, the pIC50 was < 4.34. In the case of `Cc1ccc(-c2ncc(Cl)cc2-c2ccc(S(C)(=O)=O)cc2)cn1`, the pIC50 was < 4.34. With `CCCC(C)(COC(N)=O)COC(=O)NC(C)C` (configuration not stated) the pIC50 was < 4.34. `C[C@H]1O[C@H](O[C@H]2[C@H](O)[C@@H](O)[C@@H](O[C@H]3[C@H](O)[C@@H](O)[C@H](O)O[C@@H]3CO)O[C@@H]2CO)[C@H](O)[C@@H](O)[C@@H]1N[C@H]1C=C(CO)[C@@H](O)[C@H](O)[C@H]1O` was tested, and the pIC50 was < 4.34. For `CNC[C@H](O)c1ccc(O)c(O)c1`, the pIC50 was < 4.34. In the case of `CCC(C)(C)c1ccc(O)cc1`, the pIC50 was < 4.34.
